Reference: patent publication US5780604A, “11,12-cyclic phosphite or phosphate derivatives of erythromycin and related macrolides” (Abbott Laboratories, priority 1997, dated 1998)
Converted amounts (≈) assume the structure as drawn.

Experiments:
[1] = background statement; cited from earlier work
[2] = system: gram-positive bacteria, mycoplasmas; settings: background statement, U.S. Pat. No. 4,331,803; cited from earlier work
Gram-negative bacteria = settings: background statement; cited from earlier work
[3] = system: Haemophilis Influenzae DILL AMP R; format: cell-based; settings: BHI agar, 35°-37° C., 20 to 24 hours; unit assumed
Protocol: (§1) Representative compounds of the present invention were assayed in vitro for antibacterial activity as follows: Twelve petri dishes containing successive aqueous dilutions of the test compound mixed with 10 mL of sterilized Brain Heart Infusion (BHI) agar (Difco 0418-01-5) were prepared. Each plate was inoculated with 1:100 (or 1:10 for slow-growing strains, such as Micrococcus and Streptococcus) dilutions of up to 32 different microorganisms, using a Steers replicator block. […] In addition, a control plate, using BHI agar containing no test compound, was prepared and incubated at the beginning and end of each test.
(§2) An additional plate containing a compound having known susceptibility patterns for the organisms being tested and belonging to the same antibiotic class as the test compound was also prepared and incubated as a further control, as well as to provide test-to-test comparability.
(§3) After incubation, each plate was visually inspected. The minimum inhibitory concentration (MIC) was defined as the lowest concentration of drug yielding no growth, a slight haze, or sparsely isolated colonies on the inoculum spot as compared to the growth control.

Escherichia coli JUHL = assay: In vitro antibacterial activity (MIC), agar dilution; format: cell-based; settings: unit assumed
Protocol: as §1, §2, §3

[4] = system: Micrococcus luteus ATCC 4698; format: cell-based; settings: BHI agar, 35°-37° C., 20 to 24 hours; unit assumed
Protocol: as §1, §2, §3

[5] = system: Staphylococcus epidermidis 3519; format: cell-based; settings: BHI agar, 35°-37° C., 20 to 24 hours; unit assumed
Protocol: as §1, §2, §3

[6] = system: Streptococcus agalactiae CMX 508; format: cell-based; settings: BHI agar, 35°-37° C., 20 to 24 hours; unit assumed
Protocol: as §1, §2, §3

[7] = system: Staphylococcus aureus CMX 642A; format: cell-based; settings: BHI agar, 35°-37° C., 20 to 24 hours; unit assumed
Protocol: as §1, §2, §3

[8] = system: Enterococcus faecium ATCC 8043; format: cell-based; settings: BHI agar, 35°-37° C., 20 to 24 hours; unit assumed
Protocol: as §1, §2, §3

[9] = system: Staphylococcus aureus CMX 553; format: cell-based; settings: BHI agar, 35°-37° C., 20 to 24 hours; unit assumed
Protocol: as §1, §2, §3

[10] = system: Streptococcus pyogenes EES61; format: cell-based; settings: BHI agar, 35°-37° C., 20 to 24 hours; unit assumed
Protocol: as §1, §2, §3

[11] = system: Streptococcus pyogenes PIU 2548; format: cell-based; settings: BHI agar, 35°-37° C., 20 to 24 hours; unit assumed
Protocol: as §1, §2, §3

[12] = system: Staphylococcus aureus NCTC10649M; format: cell-based; settings: BHI agar, 35°-37° C., 20 to 24 hours; unit assumed
Protocol: as §1, §2, §3

[13] = system: Micrococcus luteus ATCC 9341; format: cell-based; settings: BHI agar, 35°-37° C., 20 to 24 hours; unit assumed
Protocol: as §1, §2, §3

[14] = system: Staphylococcus aureus A5177; format: cell-based; settings: BHI agar, 35°-37° C., 20 to 24 hours; unit assumed
Protocol: as §1, §2, §3

[15] = system: Staphylococcus aureus ATCC 6538P; format: cell-based; settings: BHI agar, 35°-37° C., 20 to 24 hours; unit assumed
Protocol: as §1, §2, §3

[16] = system: Streptococcus bovis A-5169; format: cell-based; settings: BHI agar, 35°-37° C., 20 to 24 hours; unit assumed
Protocol: as §1, §2, §3

[17] = system: Streptococcus pyogenes 930; assay: In vitro antibacterial activity (MIC), agar dilution; format: cell-based; settings: BHI agar, 35°-37° C., 20 to 24 hours; unit assumed
Protocol: as §1, §2, §3

[18] = system: Nocardia Asteroides ATCC9970; assay: as above; format: cell-based; settings: BHI agar, 35°-37° C., 20 to 24 hours; unit assumed
Protocol: as §1, §2, §3

Escherichia coli DC-2 = assay: as above; format: cell-based; settings: BHI agar, 35°-37° C., 20 to 24 hours; unit assumed
Protocol: as §1, §2, §3

Candida albicans CCH 442 = assay: as above; format: cell-based; settings: BHI agar, 35°-37° C., 20 to 24 hours; unit assumed
Protocol: as §1, §2, §3

[19] = system: Mycobacterium smegmatis ATCC 114; assay: as above; format: cell-based; settings: BHI agar, 35°-37° C., 20 to 24 hours; unit assumed
Protocol: as §1, §2, §3

[20] = system: Streptococcus Pheumoniae GYR 1171; assay: as above; format: cell-based; settings: BHI agar, 35°-37° C., 20 to 24 hours; unit assumed
Protocol: as §1, §2, §3

[21] = system: Staphylococcus aureus A-5278; assay: as above; format: cell-based; settings: BHI agar, 35°-37° C., 20 to 24 hours; unit assumed
Protocol: as §1, §2, §3

Escherichia coli SS = assay: as above; format: cell-based; settings: BHI agar, 35°-37° C., 20 to 24 hours; unit assumed
Protocol: as §1, §2, §3

[22] = system: Streptococcus Pheumoniae 5649; assay: as above; format: cell-based; settings: BHI agar, 35°-37° C., 20 to 24 hours; unit assumed
Protocol: as §1, §2, §3

[23] = system: Staphylococcus aureus 1775; assay: as above; format: cell-based; settings: BHI agar, 35°-37° C., 20 to 24 hours; unit assumed
Protocol: as §1, §2, §3

[24] = BHI agar, 35°-37° C., 20 to 24 hours

Row | SMILES | activity against Gram-negative bacteria (Gram-negative bacteria) | MIC [3] | MIC [4] | MIC [5] | MIC [6] | MIC [7] | MIC [8] | MIC [9] | MIC [10] | MIC [11] | MIC [12] | MIC [13] | MIC [14] | MIC [15] | MIC [16] | MIC (Escherichia coli JUHL; [24]) | MIC [17] | MIC [18] | MIC (Escherichia coli DC-2) | MIC (Candida albicans CCH 442) | further results
1 | CC[C@H]1OC(=O)[C@H](C)[C@@H](O[C@H]2C[C@@](C)(OC)[C@@H](O)[C@H](C)O2)[C@H](C)[C@@H](O[C@@H]2O[C@H](C)C[C@H](N(C)C)[C@H]2O)[C@](C)(OC)C[C@@H](C)C(=O)[C@H](C)[C@@H](O)[C@]1(C)O [6-O-methyl erythromycin A] | only weak antimicrobial activity |  |  |  |  |  |  |  |  |  |  |  |  |  |  |  |  |  |  |  | acid stability [1]: poor acid stability; antibacterial activity against many gram-positive bacteria, mycoplasmas, etc. [2]: desirable antibacterial activity
2 | CC[C@H]1OC(=O)[C@H](C)[C@@H](O[C@H]2C[C@@](C)(OC)[C@@H](O)[C@H](C)O2)[C@H](C)[C@@H](O[C@@H]2O[C@H](C)C[C@H](N(C)C)[C@H]2O)[C@](C)(O)C[C@@H](C)C(=O)[C@H](C)[C@@H](O)[C@]1(C)O [Ery. A, Erythromycin A] | only weak activity | 4 µg/mL (≈ 5.45 µM) |  |  |  |  |  |  |  |  |  |  |  |  |  |  |  |  |  |  | MIC (Escherichia coli JUHL): > 100 µg/mL
3 | CC[C@H]1OC(=O)[C@H](C)C(=O)[C@H](C)[C@@H](O[C@@H]2O[C@H](C)C[C@H](N(C)C)[C@H]2O)[C@](C)(OC)C[C@@H](C)C(=O)[C@H](C)[C@H]2OP(OC)O[C@@]21C (some centres unmarked) [Example 3] |  | > 128 µg/mL | 25 µg/mL (≈ 38.6 µM) | 25 µg/mL (≈ 38.6 µM) | 12.5 µg/mL (≈ 19.3 µM) | 25 µg/mL (≈ 38.6 µM) | 25 µg/mL (≈ 38.6 µM) | 50 µg/mL (≈ 77.2 µM) | 12.5 µg/mL (≈ 19.3 µM) | 12.5 µg/mL (≈ 19.3 µM) | 25 µg/mL (≈ 38.6 µM) | 25 µg/mL (≈ 38.6 µM) | 25 µg/mL (≈ 38.6 µM) | 25 µg/mL (≈ 38.6 µM) | 12.5 µg/mL (≈ 19.3 µM) | > 100 µg/mL | > 100 µg/mL | 12.5 µg/mL (≈ 19.3 µM) | > 100 µg/mL | > 100 µg/mL | MIC [19]: 100 µg/mL (≈ 154 µM); MIC [20]: 8 µg/mL (≈ 12.4 µM); MIC [21]: > 100 µg/mL; MIC (Escherichia coli SS): 50 µg/mL (≈ 77.2 µM); MIC [22]: 16 µg/mL (≈ 24.7 µM); MIC [23]: > 100 µg/mL
4 | CCOP1O[C@@H]2[C@@H](C)C(=O)[C@H](C)C[C@@](C)(OC)[C@H](O[C@@H]3O[C@H](C)C[C@H](N(C)C)[C@H]3O)[C@@H](C)C(=O)[C@@H](C)C(=O)O[C@H](CC)[C@@]2(C)O1 (some centres unmarked) [Example 5] |  | > 128 µg/mL | 50 µg/mL (≈ 75.6 µM) | 25 µg/mL (≈ 37.8 µM) | 12.5 µg/mL (≈ 18.9 µM) | 50 µg/mL (≈ 75.6 µM) | 25 µg/mL (≈ 37.8 µM) | 50 µg/mL (≈ 75.6 µM) | 12.5 µg/mL (≈ 18.9 µM) | 12.5 µg/mL (≈ 18.9 µM) | 25 µg/mL (≈ 37.8 µM) | 25 µg/mL (≈ 37.8 µM) | 25 µg/mL (≈ 37.8 µM) | 25 µg/mL (≈ 37.8 µM) | 12.5 µg/mL (≈ 18.9 µM) | > 100 µg/mL | > 100 µg/mL | 12.5 µg/mL (≈ 18.9 µM) | > 100 µg/mL | > 100 µg/mL | MIC [19]: 100 µg/mL (≈ 151 µM); MIC [20]: 4 µg/mL (≈ 6.04 µM); MIC [21]: > 100 µg/mL; MIC (Escherichia coli SS): 50 µg/mL (≈ 75.6 µM); MIC [22]: 16 µg/mL (≈ 24.2 µM); MIC [23]: > 100 µg/mL
